Laboratory results: ChEMBL document CHEMBL1150118, “Agonodepsides a and B: two new depsides from a filamentous fungus F7524” (J Nat Prod, 2002)
Calls of active or inactive are those of the source. No cut-off for these calls is given here.

How the values were obtained:
[1] = target: T1, Enoyl-[acyl-carrier-protein] reductase [NADH] (Mycobacterium tuberculosis, UniProt P9WGR1); test: inhibition of Mycobacterium tuberculosis InhA after 20 mins by fluorometric assay
T1 sequence (P9WGR1 whole entry): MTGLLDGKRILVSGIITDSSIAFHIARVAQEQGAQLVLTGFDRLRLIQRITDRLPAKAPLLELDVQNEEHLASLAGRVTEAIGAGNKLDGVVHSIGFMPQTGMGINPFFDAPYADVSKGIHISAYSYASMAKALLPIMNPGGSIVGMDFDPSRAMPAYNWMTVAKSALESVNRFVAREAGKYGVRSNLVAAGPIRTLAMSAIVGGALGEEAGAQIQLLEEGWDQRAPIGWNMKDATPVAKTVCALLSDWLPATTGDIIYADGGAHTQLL

[2] = target: T2, Enoyl-[acyl-carrier-protein] reductase [NADH] (Mycobacterium tuberculosis) (UniProt P9WGR1); test: inhibition of Mycobacterium tuberculosis InhA at 100 uM after 20 mins by fluorometric assay
T2 sequence (whole entry): T1 sequence (P9WGR1 whole entry)

Structure (SMILES) | IC50 [1] [µM] | Activity [2]
C/C=C(\C)c1cc(O)c(C)c(OC(=O)c2c(/C(C)=C/C)cc(O)c(C)c2O)c1 [AGONODEPSIDE A] | 75 | –
C/C=C(\C)c1cc(O)c(C)c(O)c1C(=O)Oc1cc(/C(C)=C/C)c(C(=O)O)c(O)c1C | – | inactive
